Results published in publication PMC5371667, “Targeting Bile Acid Receptors: Discovery of a Potent and Selective Farnesoid X Receptor Agonist as a New Lead in the Pharmacological Approach to Liver Diseases” (Frontiers in Pharmacology, 2017).

Legend:
[1] = molecular target: T1, human GPBAR1 (Homo sapiens, UniProt Q8TDU6); test: GPBAR1 transactivation on HepG2 cells (CRE luciferase reporter); format: cell-based; conditions: 50 and 100 μM
T1 construct: expressed in transfected cells; host or cells: HepG2
T1 sequence (Q8TDU6 1-330): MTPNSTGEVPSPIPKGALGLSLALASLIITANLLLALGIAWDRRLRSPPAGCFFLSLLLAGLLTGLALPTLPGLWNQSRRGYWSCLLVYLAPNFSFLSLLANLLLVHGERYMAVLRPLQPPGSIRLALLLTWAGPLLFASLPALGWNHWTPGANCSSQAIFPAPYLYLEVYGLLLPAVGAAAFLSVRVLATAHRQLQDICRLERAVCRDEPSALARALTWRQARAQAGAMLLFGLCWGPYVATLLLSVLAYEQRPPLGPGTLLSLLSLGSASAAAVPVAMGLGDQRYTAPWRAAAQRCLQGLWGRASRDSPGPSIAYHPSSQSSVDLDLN
Procedure: For FXR mediated transactivation, HepG2 cells were plated at 5 × 10^4 cells/well in a 24 well plate. Cells were transfected with 200 ng of the reporter vector p(hsp27)-TK-LUC containing a FXR response element (IR1) cloned from the promoter of heat shock protein 27 (hsp27), 100 ng of pSG5-FXR, 100 ng of pSG5-RXR, and 100 ng of pGL4.70 (Promega), a vector encoding the human Renilla gene. For GPBAR1 mediated transactivation, HepG2 cells were plated at 5 × 10^4 cells/well in a 24 well-plate and transfected with 200 ng of pGL4.29 (Promega), a reporter vector containing a cAMP response element (CRE) that drives the transcription of the luciferase reporter gene luc2P, with 100 ng of pCMVSPORT6-human GPBAR1, and with 100 ng of pGL4.70 Renilla. […] TLCA (10 μM) was used as a positive control for GPBAR1 activity.

[2] = molecular target: T2, PPARγ (Homo sapiens, UniProt P37231); test: PPARγ transactivation on HepG2 cells (GAL4 LBD reporter); format: cell-based; conditions: 10 μM
T2 construct: expressed in transfected cells; host or cells: HepG2
T2 sequence (P37231 238-503 limits assumed): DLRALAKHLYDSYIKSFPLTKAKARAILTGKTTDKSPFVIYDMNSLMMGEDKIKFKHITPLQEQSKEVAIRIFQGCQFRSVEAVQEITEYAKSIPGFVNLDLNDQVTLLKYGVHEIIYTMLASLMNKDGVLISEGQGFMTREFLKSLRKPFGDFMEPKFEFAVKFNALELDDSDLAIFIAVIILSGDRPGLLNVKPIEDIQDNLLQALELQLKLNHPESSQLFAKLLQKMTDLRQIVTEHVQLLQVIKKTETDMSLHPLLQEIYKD
Procedure: (§1) To evaluate LXRα and LXRβ mediated transactivation, HepG2 cells were transfected with 200 ng of the reporter vector p(UAS)5XTKLuc, 100 ng of a vector containing the ligand binding domain of LXRα or LXRβ cloned upstream of the GAL4-DNA binding domain (i.e., pSG5-LXRαLBD-GAL4DBD or pSG5-LXRβLBD-GAL4DBD) and 100 of pGL4.70 Renilla. At 24 h post-transfection, cells were stimulated 18 h with 10 μM compound 2 and GW3965 (GW, 10 μM) was used as positive control. To investigate the PPARα and PPARγ mediated transactivation, HepG2 cells were transiently transfected with 200 ng reporter vector p(UAS)9XTKLuc, 100 ng of a vector containing the ligand binding domain of PPARα or PPARγ cloned upstream of the GAL4-DNA binding domain (i.e., pSG5- PPARαLBD-GAL4DBD or pSG5- PPARγLBD-GAL4DBD) and 100 of pGL4.70 Renilla. For PPARα transactivation, cells were stimulated with 10 μM compound 2 and gemfibrozil (GEM, 10 μM) was used as positive control. For PPARγ transactivation, cells were stimulated with 10 μM compound 2 and rosiglitazone (ROSI, 100 nM) was used as a positive control. Luciferase activities were assayed and normalized with Renilla activities.

[3] = molecular target: T3, LXRβ (Homo sapiens, UniProt P55055); test: LXRβ transactivation on HepG2 cells (GAL4 LBD reporter); format: cell-based; conditions: 10 μM
T3 construct: expressed in transfected cells; host or cells: HepG2
T3 sequence (P55055 222-460 limits assumed): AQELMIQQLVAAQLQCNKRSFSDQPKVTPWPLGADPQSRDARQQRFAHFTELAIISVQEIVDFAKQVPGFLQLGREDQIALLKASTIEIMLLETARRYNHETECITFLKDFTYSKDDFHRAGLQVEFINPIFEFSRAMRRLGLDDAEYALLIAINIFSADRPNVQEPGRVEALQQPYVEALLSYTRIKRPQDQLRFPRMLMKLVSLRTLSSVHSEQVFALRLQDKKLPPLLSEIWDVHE
Procedure: as §1

[4] = system: FXR target genes in liver; test: Hepatic FXR target gene expression in C57BL6 mice (RT-PCR); format: in vivo; conditions: 50 mg/kg per os, p < 0.05 versus control mice
Procedure: HepG2 cells were plated at 1 × 10^6 cells/well in a six well plate. After an overnight incubation, cells were starved and then stimulated for 18 h with compound 2 at 1 μM. Total RNA was isolated from HepG2 cells or liver tissues using the TRIzol reagent according to the manufacturer’s specifications (Invitrogen). One microgram of purified RNA was treated with DNase-I and reverse transcribed with Superscript II (Invitrogen). For Real Time PCR, 10 ng template was dissolved in 25 μL containing 200 nmol/L of each primer and 12.5 μL of 2× SYBR FAST Universal ready mix (Invitrogen). All reactions were performed in triplicate, and the thermal cycling conditions were as follows: 2 min at 95°C, followed by 40 cycles of 95°C for 20 s and 60°C for 30 s in StepOnePlus (Applied Biosystems). The relative mRNA expression was calculated accordingly to the Ct method. Primers were designed using the software PRIMER3^1 using published data obtained from the NCBI database. Forward and reverse primer sequences were the following: human GAPDH, […] and […]; human BSEP, […] and […]; human OSTα, […] and […]; human SHP, […] and […]; mouse NTCP, […] and […]; mouse CYP7A1, […] and […]; mouse FGF21, […] and […]; mouse GAPDH, […] and […]; mouse BSEP, […] and […]; mouse OSTα, […] and […]; mouse SHP, […] and […].
C57BL6 male mice were from Harlan Nossan (Udine, Italy). The colonies were maintained in the animal facility of University of Perugia. Mice were housed under controlled temperatures (22 °C) and photoperiods (12:12-hour light/dark cycle), allowed unrestricted access to standard mouse chow and tap water and allowed to acclimate to these conditions for at least 5 days before inclusion in an experiment. A total number of eight mice were used in this study. The study was conducted in agreement with the Italian law and the protocol was approved by Ethical Committee of University of Perugia and by a National Committee of Ministry of Health (permission N° 42/2014 B). The health and body conditions of the animals were monitored daily by the veterinarian in the animal facility. At the day of sacrifice mice were deeply anesthetized with a mixture of […]/xylazine at a dose of 50 mg/Kg.

## CC[C@H]1[C@@H](O)[C@@H]2[C@H](CC[C@]3(C)[C@@H]([C@H](C)CCC(=O)O)CC[C@@H]23)[C@@]2(C)CC[C@H](N=[N+]=[N-])C[C@@H]12 [compound 2, 3β-azido-6α-ethyl-7α-hydroxy-5β-cholan-24-oic acid]
[1]
  GPBAR1 transactivation: inactivity
[2]
  PPARγ transactivation: unable in inducing
[3]
  LXRβ transactivation: unable in inducing
[4]
  relative hepatic mRNA expression of BSEP: significantly up-regulated
  relative hepatic mRNA expression of CYP7A1: downregulated
  relative hepatic mRNA expression of FGF21: significantly up-regulated
  relative hepatic mRNA expression of OSTα: significantly up-regulated
  relative hepatic mRNA expression of SHP: significantly up-regulated
